Here are results for twelve compounds from patent publication US20220380829A1, “Method of Diagonosizing Pathogens and their Antimicrobial Susceptibility” (HANGZHOU DIAN MEDICAL LABORATORY CO., LTD., priority 2019, published 2022).

Test [1] has as its system Streptococcus pneumoniae. The test can be described thus: VITEK2 Compact AST (AST-GP68 cards) with penicillin disc diffusion, gold standard culture-based AST. In kind it is cell-based. Here is the method:
Step 1. Drug susceptibility verification: The Streptococcus pneumoniae isolates were tested for drug susceptibility using bioMérieux Vitek2 Compact System and AST-GP68 cards, and specifically, the susceptibility of penicillin was double checked by disc diffusion method (OXOID, CT0043B), and the combined results were used as the gold standard (culture-based AST).
Step 1. Sample collection and drug susceptibility verification: 48 clinical Streptococcus pneumoniae isolates were collected from 18 hospitals across china in a period between May 2017 and October 2019. All isolates were tested for drug susceptibility using bioMérieux Vitek2 Compact System and AST-GP68 card, and specifically, the susceptibility of penicillin was double checked by disc diffusion method (OXOID, CT0043B), and the combined results were used as the gold standard (culture-based AST).

Test [2] concerns Enterococcus faecalis. The test can be described thus: VITEK2 Compact AST (AST-P639 cards), gold standard culture-based AST. In kind it is cell-based.
Setting [3] is: Resistance profile classification A.
Setting [4] is: Resistance profile classification B.
Setting [5] is: Resistance profile classification C.
[6] abbreviates: Resistance profile classification D.
Where [7] appears, read: Resistance profile classification G.
The mark [8] stands for this setting: Resistance profile classification H.
The mark [9] stands for this setting: Resistance profile classification I.
Setting [10] is: Resistance profile classification J.
Setting [11] is: Resistance profile classification S.
Setting [12] is: Resistance profile classification F (first line so labelled, r12).
The mark [13] stands for this setting: Resistance profile classification F (second line so labelled, r13).
Where [14] appears, read: Resistance profile classification K.
The mark [15] stands for this setting: Resistance profile classification L.
The mark [16] stands for this setting: Resistance profile classification M.
Also: key: ‘R’ indicates drug-resistant; ‘S’ indicates drug-susceptible.

As for `CO/N=C(\C(=O)N[C@@H]1C(=O)N2C(C(=O)O)=C(CSc3nc(=O)c(=O)[nH]n3C)CS[C@H]12)c1csc(N)n1` [ceftriaxone], in test [1], the “Blind 1 by AST” value is recorded as “S” and the “blind 2 by AST” value is given as “R”.

Take `C[C@@H](O)[C@H]1C(=O)N2C(C(=O)O)=C(S[C@@H]3CN[C@H](C(=O)N(C)C)C3)[C@H](C)[C@H]12` [meropenem]: in test [1], the “Blind 1 by AST” value was “S” and the “blind 2 by AST” value is listed as “S”.

As for `CN(C)[C@@H]1C(O)=C(C(N)=O)C(=O)[C@@]2(O)C(O)=C3C(=O)c4c(O)cccc4[C@@](C)(O)[C@H]3C[C@@H]12` [tetracycline], the “Blind 1 by AST” value in test [1] is reported as “R”. Moreover, the “Susceptibility of Streptococcus pneumoniae to 14 antibacterial drugs” value in test [1] (setting [3]) is “R”; in test [1] (setting [4]), “R”; in test [1] (setting [5]), “S”; in test [1] (setting [6]) it was “S”; in test [1] (Resistance profile classification E), “S”; in test [1] (Resistance profile classification F) it was “S”. Also, the “Susceptibility of Streptococcus pneumoniae to 14 antibacterial drugs” value in test [1] (setting [7]) was “S”; in test [1] (setting [8]), “S”; in test [1] (setting [9]), “S”; in test [1] (setting [10]) it was “R”; in test [1] (setting [11]), “S”. Also, the “blind 2 by AST” value in test [1] is “R”. The “Susceptibility of Emterococcus faecalis to 11 antibacterial drugs” value (shortened to “Susceptibility of Emterococcus faecalis”) in test [2] (setting [3]) was “R”; in test [2] (setting [4]), “S”; in test [2] (setting [5]), “S”; in test [2] (setting [6]), “S”; in test [2] (setting [12]), “S”; in test [2] (setting [13]) it was “R”. Moreover, the “Susceptibility of Emterococcus faecalis” value was “R” in test [2] (setting [7]); “R” in test [2] (setting [8]); “S” in test [2] (setting [9]); “R” in test [2] (setting [10]); “R” in test [2] (setting [14]); “S” in test [2] (setting [15]). The “Susceptibility of Emterococcus faecalis” value was “R” in test [2] (setting [16]) and “S” in test [2] (setting [11]).

On to `CCCCCCCCCC(=O)N[C@@H](Cc1c[nH]c2ccccc12)C(=O)N[C@H](CC(N)=O)C(=O)N[C@@H](CC(=O)O)C(=O)N[C@@H]1C(=O)NCC(=O)N[C@@H](CCCN)C(=O)N[C@@H](CC(=O)O)C(=O)N[C@H](C)C(=O)N[C@@H](CC(=O)O)C(=O)NCC(=O)N[C@H](CO)C(=O)N[C@@H]([C@H](C)CC(=O)O)C(=O)N[C@@H](CC(=O)c2ccccc2N)C(=O)O[C@@H]1C` [daptomycin], for which the “Susceptibility of Emterococcus faecalis” value in test [2] (setting [3]), in test [2] (setting [4]), in test [2] (setting [5]), in test [2] (setting [6]), in test [2] (setting [12]) and in test [2] (setting [13]) was “S” throughout. In addition, the “Susceptibility of Emterococcus faecalis” value in test [2] (setting [7]), in test [2] (setting [8]), in test [2] (setting [9]), in test [2] (setting [10]), in test [2] (setting [14]) and in test [2] (setting [15]) was “S” throughout. In addition, the “Susceptibility of Emterococcus faecalis” value in test [2] (setting [16]) and in test [2] (setting [11]) was “S” throughout.

As to `CN[C@H](CC(C)C)C(=O)N[C@H]1C(=O)N[C@@H](CC(N)=O)C(=O)N[C@H]2C(=O)N[C@H]3C(=O)N[C@H](C(=O)N[C@H](C(=O)O)c4cc(O)cc(O)c4-c4cc3ccc4O)[C@H](O)c3ccc(c(Cl)c3)Oc3cc2cc(c3O[C@@H]2O[C@H](CO)[C@@H](O)[C@H](O)[C@H]2O[C@H]2C[C@](C)(N)[C@H](O)[C@H](C)O2)Oc2ccc(cc2Cl)[C@H]1O` [vancomycin], the “Blind 1 by AST” value in test [1] is given as “S”. Further, the “blind 2 by AST” value in test [1] is listed as “S”. Also, the “Susceptibility of Emterococcus faecalis” value in test [2] (setting [3]), in test [2] (setting [4]), in test [2] (setting [5]), in test [2] (setting [6]), in test [2] (setting [12]) and in test [2] (setting [13]) was “S” throughout. Also, the “Susceptibility of Emterococcus faecalis” value in test [2] (setting [7]), in test [2] (setting [8]), in test [2] (setting [9]), in test [2] (setting [10]), in test [2] (setting [14]) and in test [2] (setting [15]) was “S” each time. Also, the “Susceptibility of Emterococcus faecalis” value in test [2] (setting [16]) and in test [2] (setting [11]) was “S” each time.

With `CO/N=C(\C(=O)N[C@@H]1C(=O)N2C(C(=O)[O-])=C(C[N+]3(C)CCCC3)CS[C@H]12)c1csc(N)n1` [cefepime], in test [1], the “Blind 1 by AST” value is recorded as “S” and the “blind 2 by AST” value is recorded as “R”.

With `CN(C)c1cc(NC(=O)CNC(C)(C)C)c(O)c2c1C[C@H]1C[C@H]3[C@H](N(C)C)C(O)=C(C(N)=O)C(=O)[C@@]3(O)C(O)=C1C2=O` [tigecycline], the “Susceptibility of Emterococcus faecalis” value in test [2] (setting [3]), in test [2] (setting [4]), in test [2] (setting [5]), in test [2] (setting [6]), in test [2] (setting [12]) and in test [2] (setting [13]) was “S” each time. The “Susceptibility of Emterococcus faecalis” value in test [2] (setting [7]), in test [2] (setting [8]), in test [2] (setting [9]), in test [2] (setting [10]), in test [2] (setting [14]) and in test [2] (setting [15]) was “S” in each case. In addition, in test [2] (setting [11]), the “Susceptibility of Emterococcus faecalis” value is reported as “S”.

Regarding `CC(=O)NC[C@H]1CN(c2ccc(N3CCOCC3)c(F)c2)C(=O)O1` [linezolid], in test [1], the “Blind 1 by AST” value is “S”. In test [1], the “blind 2 by AST” value is recorded as “S”. Besides, the “Susceptibility of Emterococcus faecalis” value in test [2] (setting [3]), in test [2] (setting [4]), in test [2] (setting [5]), in test [2] (setting [6]), in test [2] (setting [7]) and in test [2] (setting [8]) was “S” throughout. Further, the “Susceptibility of Emterococcus faecalis” value in test [2] (setting [9]), in test [2] (setting [10]), in test [2] (setting [14]), in test [2] (setting [15]), in test [2] (setting [16]) and in test [2] (setting [11]) was “S” each time.

As to `C[C@@H](O)[C@H]1C(=O)N2C(C(=O)O)=C(S[C@@H]3CN[C@H](C(=O)Nc4cccc(C(=O)O)c4)C3)[C@H](C)[C@H]12` [ertapenem], in test [1], the “Blind 1 by AST” value is “S” and the “blind 2 by AST” value is listed as “S”.

Turning to `CO/N=C(\C(=O)N[C@@H]1C(=O)N2C(C(=O)O)=C(COC(C)=O)CS[C@H]12)c1csc(N)n1` [cefotaxime], in test [1], the “Blind 1 by AST” value is on record as “S” and the “blind 2 by AST” value is recorded as “R”.

Regarding high-level gentamicin [HLAR], the “Susceptibility of Emterococcus faecalis” value is given as “R” in test [2] (setting [3]); “R” in test [2] (setting [4]); “S” in test [2] (setting [5]); “S” in test [2] (setting [6]); “S” in test [2] (setting [12]); “S” in test [2] (setting [13]). Also, the “Susceptibility of Emterococcus faecalis” value in test [2] (setting [7]) is reported as “R”; in test [2] (setting [8]), “R”; in test [2] (setting [9]) it was “R”; in test [2] (setting [10]) it was “S”; in test [2] (setting [14]), “S”; in test [2] (setting [15]), “S”. Further, the “Susceptibility of Emterococcus faecalis” value in test [2] (setting [16]) and in test [2] (setting [11]) was “S” each time.

Turning to `COc1c(N2C[C@@H]3CCCN[C@@H]3C2)c(F)cc2c(=O)c(C(=O)O)cn(C3CC3)c12` [moxifloxacin], in test [1], the “Blind 1 by AST” value was “S” and the “blind 2 by AST” value is “S”.
